In patent publication US20130251731A1, “Tau Acetylation in the Pathogenesis of Alzheimers Disease and Other Related Tauopathies” (THE TRUSTEES OF THE UNIVERSITY OF PENNSYLVANIA, priority 2012, published 2013):

How the values were obtained:
[1] = biological target: T1, tau-K18 acetyltransferase activity (Homo sapiens, UniProt P10636); assay: Tau auto-acetylation filter binding assay, cofactor inhibition analysis; format: biochemical; conditions: 25 μM tau, 450 μM [3H]-acetyl-CoA; for IC50: 1 hr at 37° C., read-out: IC50 for inhibition of acetyl-CoA-dependent tau-K18 acetyltransferase activity
T1 construct: made in house
T1 sequence (P10636 561-685 limits assumed): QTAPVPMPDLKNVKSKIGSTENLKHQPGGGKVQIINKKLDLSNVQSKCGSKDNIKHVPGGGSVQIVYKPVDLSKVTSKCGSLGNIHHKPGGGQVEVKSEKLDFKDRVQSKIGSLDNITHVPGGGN
Experimental: Reactions were assembled in 50 μl of reaction buffer containing 50 mM Tris pH 8.0, 100 μM EDTA, and 10% glycerol. Unless specifically noted, reactions contained 25 μM of either WT tau-K18 or tau-K18-2CA mutant. The reactions were initiated by the addition of [^3H]-acetyl-CoA (2.35 Ci mmol^−1, Perkin Elmer) at concentrations ranging from 2.5 μM to 1 mM, incubated at 37° C., and allowed to proceed for 1 hr (unless otherwise noted). Reactions were stopped by the addition of 10 μl of 3 mM CoA, and 25 μl of the reaction was then spotted to a P81 filter paper (Whatman), washed in 10 mM HEPES pH 7.5 three times, and dried using acetone. Incorporated [^3H]-acetyl-CoA was then measured using the Perkin Elmer Tri-Carb 2800TR Liquid Scintillation Analyzer, and the molar amount of acetyl groups incorporated into tau were calculated from a standard curve of the radiolabeled acetyl-CoA.
Reactions were performed in the buffer described above and at 25 μM tau. Reactions included between 1 and 4000 μM of the inhibitors: CoA, acetonyl-CoA, or pantothenic acid. All reactions were initiated by the addition of 450 μM [^3H]-acetyl-CoA (2.35 Ci mmol^−1, Perkin Elmer), incubated for 1 hr at 37° C., and stopped by spotting 25 μl of the reaction to the P81 filter paper. Radiolabeled incorporation was measured as stated above. All data were analyzed using GraphPad Prism to determine kinetic parameters and IC50 values.

[2] = Heparin-induced tau fibrillization assay quantified by Thioflavin-T binding; format: biochemical; conditions: 10 μM tau proteins, 10 μM heparin, 4-h incubation
Experimental: (§1) Recombinant full-length T40, 4R-tau MT-binding domain K18, or tau fibrils were acetylated by incubation with [^14C]-labeled acetyl-CoA in the presence or absence of CBP. FIG. 1A illustrates that the reaction products were analyzed by SDS-PAGE and Coomassie blue staining followed by overnight radiographic exposure using STORM phosphor-imager software. FIG. 1B depicts the results of an experiment where T40 or K18 proteins were incubated with acetyl-CoA and/or recombinant CBP and reaction products were subjected to immunoblot analysis using a polyclonal anti-tau-specific antibody for MT repeat domain (E10) and an anti-acetyl-lysine antibody. FIG. 1C is a graph depicting the MT assembly activities of K18 proteins as evaluated in light-scattering assays. Tubulin monomers (30 μM) were mixed with 40 μM tau proteins in MT assembly buffer supplemented with 2 mM guanosine triphosphate. MT assembly was determined by monitoring absorbance every minute at 350 nm using a SpectraMax plate reader. […] FIG. 1D is a graph illustrating the results of experiments where Tau proteins (10 μM) were evaluated in fibrillization reactions using 10 μM heparin to induce assembly. […] Samples were analysed by SDS-PAGE and Coomassie staining to monitor fibril formation. FIG. 1F illustrates the results of experiments where four-hour time points from fibrillization reactions were analysed by negative-staining EM. […]
Tau K18 protein was either mock acetylated or acetylated in vitro using acetyl-CoA substrate as indicated elsewhere herein. […] Protein concentrations were determined using the bicinchoninic acid protein assay (Pierce) with bovine serum albumin as the standard. Acetylated K18 and mock-treated K18 were assessed by a light-scattering assay as described elsewhere herein. […] The extent of fibrillization was assessed at different time points by ThT fluorescence assay, sedimentation analysis and negative staining EM as described elsewhere herein. For ThT fluorescence assay, ThT diluted in 100 mM glycine buffer (pH 8.5) was added and fluorometric readings were taken at 450 nm (excitation) and 510 nm (emission). […]

[3] = tested on: MT bundling in QBI-293 cells; assay: MT bundling in tau-transfected QBI-293 cells (immunofluorescence); format: cell-based; conditions: ten fields/transfection
Experimental: FIG. 2, comprising FIG. 2A through FIG. 2K, depicts the results of experiments which illustrate that tau acetylation in cells inhibits tau-mediated MT stabilization. FIG. 2A depicts the results of an experiment where Doxycycline (Dox)-treated HEK-T40 cells were cultured in the presence of either trichostatin A (TSA), nicotinamide (NCA) or both and pulse labelled with [^3H]-acetate for 2 h. Tau was immunoprecipitated, treated with λ-phosphatase where indicated, and analyzed by SDS-PAGE followed by autoradiography and exposure to film for 2 weeks. Total cellular lysates were analyzed by immunoblotting using anti-tau (T14/T46), PHF-1 and GAPDH antibodies. FIG. 2B illustrates the results of an experiment where cells transfected with CBP were treated with TSA and acetylated tau levels were determined by immunoprecipitation/immunoblot analysis using anti-acetylated lysine antibody. Cellular lysates were immunoblotted using T14/46, PHF-1, AT8 and GAPDH antibodies. FIG. 2C depicts the results of an experiment where cells were transfected with CBP and either wild-type (WT) HDAC6 or the catalytically dead (CD) HDAC6-H611A mutant and tau acetylation was determined by immunoblotting similar to FIG. 2B above. FIG. 2D depicts the results of an experiment where QBI-293 cells were transfected with WT T40, 2KR (K280/281R), 3KR (K163/280/281R) or 4KR (K163/280/281/369R) mutant T40 and cell lysates were immunoblotted using anti-acetyl-lysine and total tau (T14/T46) antibodies. FIG. 2E through FIG. 2G are images illustrating the results of an experiment where QBI-293 cells were transfected with WT T40 (FIG. 2E) and total MT bundling was determined by immunofluorescence using anti-acetylated tubulin antibodies as shown for WT (FIG. 2F). Merged images indicate stabilized microtubules as shown for WT (FIG. 2G). FIG. 2H through FIG. 2J are images illustrating the results of an experiment where QBI-293 cells were transfected with 4KQ (K163/280/281/369Q) (FIG. 2H) and MT bundling was determined by immunofluorescence using anti-acetylated tubulin antibodies as shown for 4KQ (FIG. 2I) and merged images (FIG. 2J). Representative images are shown from n=4 independent experiments. Note, WT tau (FIG. 2E-FIG. 2G), but not 4KQ (FIG. 2H-FIG. 2J), promotes robust MT bundling. Scale bar, […]. FIG. 2K is a graph illustrating the results of an experiment where QBI-293 cells were transfected with WT T40, K280Q, 4KQ (K163/280/281/369Q) or 4KR mutant plasmids and MT bundling was determined from tau-expressing cells by quantification of ten fields/transfection and values are represented as % MT bundling from tau-expressing cells. Error bars indicate standard error of the mean. *P value=0.006, ***P value=8.46×10^−6 as determined by Student's t-test. […]

[4] = tested on: auto-acetylated substrate; conditions: auto-acetylation, cited from earlier work; for Km: read-out: Km AcCoA [auto]
[5] = tested on: histones and microtubules; conditions: substrate as listed (H4-21, H3p19, H3, microtubules); cited from earlier work
[6] = tested on: acetylated tau in HEK-T40 cells; assay: Tau acetylation in HEK-T40 cells ([3H]-acetate labelling / immunoprecipitation); format: cell-based, human
Experimental: FIG. 2, comprising FIG. 2A through FIG. 2K, depicts the results of experiments which illustrate that tau acetylation in cells inhibits tau-mediated MT stabilization. FIG. 2A depicts the results of an experiment where Doxycycline (Dox)-treated HEK-T40 cells were cultured in the presence of either trichostatin A (TSA), nicotinamide (NCA) or both and pulse labelled with [^3H]-acetate for 2 h. Tau was immunoprecipitated, treated with λ-phosphatase where indicated, and analyzed by SDS-PAGE followed by autoradiography and exposure to film for 2 weeks. Total cellular lysates were analyzed by immunoblotting using anti-tau (T14/T46), PHF-1 and GAPDH antibodies. FIG. 2B illustrates the results of an experiment where cells transfected with CBP were treated with TSA and acetylated tau levels were determined by immunoprecipitation/immunoblot analysis using anti-acetylated lysine antibody. […] FIG. 2C depicts the results of an experiment where cells were transfected with CBP and either wild-type (WT) HDAC6 or the catalytically dead (CD) HDAC6-H611A mutant and tau acetylation was determined by immunoblotting similar to FIG. 2B above. […] FIG. 2E through FIG. 2G are images illustrating the results of an experiment where QBI-293 cells were transfected with WT T40 (FIG. 2E) and total MT bundling was determined by immunofluorescence using anti-acetylated tubulin antibodies as shown for WT (FIG. 2F). […]

[7] = tested on: tubulin; assay: MT assembly light-scattering assay; format: biochemical; conditions: 30 μM tubulin, 40 μM tau proteins, 2 mM GTP
Experimental: as §1

`CC(C)(COP(=O)(O)OP(=O)(O)OC[C@H]1O[C@@H](n2cnc3c(N)ncnc32)[C@H](O)[C@@H]1OP(=O)(O)O)[C@@H](O)C(=O)NCCC(=O)NCCS` [CoA] showed an IC50 [1] of 59 µM.
With “K18-K311D: K18 containing the K311D mutation, negative control” the “fibrillization (ThT)” value [2] was “did not fibrillize”.
In the case of `CC(C)(CO)[C@@H](O)C(=O)NCCC(=O)O` [pantothenic acid], the “inhibition of tau activity (cofactor competition)” value ([1]; between 1 and 4000 μM inhibitor) is reported as “did not show significant inhibition”.
With “4KQ: tau acetylation mimetic K163/280/281/369Q” the “% MT bundling from tau-expressing cells” value [3] was roughly 7%.
In the case of “Rtt109 + Vps75: acetyltransferase listed for literature kinetics comparison”, the “Kcat [auto]” value [4] is given as 0.002 s⁻¹, the Km [4] is given as 912 µM and the Kcat [5] is given as 0.375 s⁻¹.
For “K280Q: single K280Q acetylation mimetic of T40 tau”, the “% MT bundling from tau-expressing cells” value [3] was roughly 40%.
For “4KR: tau non-mimetic mutant K163/280/281/369R”, the “% MT bundling from tau-expressing cells” value [3] was roughly 50%.
In the case of `CC(/C=C/C(=O)NO)=C\[C@@H](C)C(=O)c1ccc(N(C)C)cc1` [trichostatin A], the acetylated tau levels ([6]; HEK-T40 cells pulse labelled with [3H]-acetate for 2 h) is reported as “dramatic increase in acetylated tau levels” and the “acetylated tau (anti-acetyl-lysine)” value ([6]; HEK-T40 cells transiently transfected with CBP) is reported as “dramatic accumulation of acetylated tau”.
For “acetylated K18: tau K18 protein acetylated in vitro using acetyl-CoA and CBP”, the “fibrillization (ThT)” value [2] was “fibrillized rapidly by 3 h” and the “MT assembly (absorbance at 350 nm)” value [7] was “failed to promote MT assembly”.
For “ESA1: MYST-family acetyltransferase, literature kinetics”, the Km [4] is listed as 9.4 µM and the Kcat [5] is listed as 0.122 s⁻¹.
In the case of `CC(=O)CSCCNC(=O)CCNC(=O)[C@H](O)C(C)(C)COP(=O)(O)OP(=O)(O)OC[C@H]1O[C@@H](n2cnc3c(N)ncnc32)[C@H](O)[C@@H]1OP(=O)(O)O` [acetonyl-CoA], the IC50 [1] is reported as 668 µM.
With “WT tau: wild-type longest human tau isoform (T40) expressed in cells” the “% MT bundling from tau-expressing cells” value [3] was roughly 55%.
In the case of “p300: nuclear acetyltransferase, literature kinetics”, the Km [4] is given as 3310 µM and the Kcat [5] is given as 0.46 s⁻¹.
